Assay results: US6716582B2 (priority 2000, dated 2004)
Like-named read-outs stand apart in the source and are kept apart here.

Key:
[1] = tested on: SOS regulon luxCDABE gene fusions; assay: SOS regulon lux fusions: stress response in liquid LB; format: cell-based, E. coli
Protocol: (§1) To test the stress responses, one or two single colonies of each selected strain were used to inoculate 5.0 ml of LB medium containing 150 μg/ml of ampicillin. These cultures were grown overnight at 37° C. then diluted by adding 50 μl or 100 μl of the overnight culture into 10.0 ml of fresh LB medium (without ampicillin) and grown with agitation at 37° C. until the culture was in exponential phase with readings on a Klett-Summerson colorimeter containing the red filter of between 10 and 40. These actively growing cultures were immediately used to initiate a stress response experiment by adding 50 μl of cultures to 50 μl of LB medium containing various concentrations of chemical in the wells a 96 well luminometer plate. This division of the actively growing culture at the time of chemical addition ensured identical populations were present when the stress was imposed. Light production was measured in a Dynex ML3000 luminometer at 37° C. The dimensionless units of light production, relative light units (RLU), are obtained by comparison with the light reading from an internal light-emitting diode.
The ability of these promoter-luxCDABE fusions to report activation of the SOS stress response was tested using nalidixic acid, a known, potent chemical inducer. The final concentrations of nalidixic acid were 1, 5, 25, and 125 μg/ml for all but strain DPD2293, which was tested at 80, 40, 20, 10, 5, 2.5, and 1.25 μg/ml.
Specificity of responses was tested by measuring the effect of ethanol on these SOS regulon gene fusions.

[2] = tested on: heat shock regulon luxCDABE gene fusions; assay: heat shock regulon lux fusions: stress response in liquid LB; format: cell-based, E. coli; settings: each of the six heat shock fusion strains; at least two of 5, 4, 3, 2 (v/v)% ethanol
Protocol: as §1

[3] = tested on: clpB-luxCDABE gene fusion; settings: 38 min
From the text: Plasmid DNA was isolated from lux-a.pk043.d3, digested with restriction enzyme XmaI, and ligated with T4 DNA ligase. The ligation reaction was used to transform E. coli strain DPD 1675 by electroporation. Transformants were selected by ampicillin resistance. […] The response to ethanol treatment of two of these light producing transformants that putatively contain inverted chromosomal inserts, of lux-a.pk054.c3 (DPD2243) that contains a plasmid with the clpB promoter operably linked to the luxCDABE reporter and of the original lux-a.pk043.d3 were compared. Actively growing cultures at 37° C. in LB medium were treated with 4% ethanol and light production was quantitated at 37° C. using a microplate luminometer (Dynex ML3000). Table 17 summarizes the average bioluminescence of duplicate samples at 38 min after treatment.

yebF-luxCDABE fusion = assay: inverted yebF-luxCDABE fusion induction by DNA damaging agents; format: cell-based, E. coli; settings: yebF-luxCDABE fusion; mitomycin C, FIG. 2
From the text: In this case, a divergent promoter to the purT gene was present in the chromosomal fragment and strains containing the backward yebF fusion produced light. Following isolation of plasmid DNA, XmaI digestion that releases the insert DNA from the vector, religation and transformation, 10% of the transformants produced light. […] The orientation of the inserted segment to yield a fusion of yebF to the luxCDABE operon was confirmed by DNA sequence analysis.
To test inverting of a chromosomal segment in a plasmid containing divergent promoters, the backward fusion to yebF was chosen. […] In this case, a divergent promoter to the purT gene was present in the chromosomal fragment and strains containing the backward yebF fusion produced light. Following XmaI digestion, religation and transformation, 10% of the transformants produced light. […] This was verified by DNA sequence analysis. Thus, inverting chromosomal segments containing divergent promoters is possible and is facilitated if the two promoters can be distinguished by their biological activity.

[4] = tested on: E. coli strain MG1655 gene expression; assay: DNA microarray experiment with mitomycin C; format: cell-based; settings: MMC 250 ng/ml, 40 min
Protocol: The E. coli strain MG1655 (rph-1) was used. Cultures grown in LB at 37° C. overnight were diluted 1 to 250 into fresh LB and grown at 37° C. with aeration. Each subculture was split into two 100 ml cultures when the reading on a Klett-Sammerson calorimeter with the red filter reads 20 Klett units. MMC (Sigma, dissolved in ddH2O) at a final concentration of 250 ng/ml, a sub-lethal dose, was added to one of the split cultures. The other culture was a no addition control. Incubation at 37° C. continued for another 40 minutes, then cells were collected for preparing total RNA. The MMC treated culture and its control reached 60 and 55 Klett units, respectively after 40 minute treatment.
Total RNA purification, first-strand cDNA labeling, preparation of the E. coli whole genome high-density microarray chips, hybridization and data analysis were done as previously described (Wei et al. (2001) J. Bacteriol. 183: 545-556). Both cy3 and cy5 were used in probe labeling, and the hybridization experiments were repeated by swapping the fluorescence cy dyes between each pair of MMC treated sample and its blank control.
Ratios of expression in the mitomycin C treated samples vs. controls were calculated for all genes in the DNA array. Ratios greater than or equal to 2 were considered induced genes, while those with ratios less than 2 fold were considered uninduced. The known SOS genes (Kim et al., (1997) Proc Natl Acad Sci USA Dec. 9, 1997; 94(25):13792-7; Lomba et al., (1997) FEMS Microbiol Lett 156:119-122; Walker, G. C. (1996). In Escherichia coli and Salmonella: Cellular and Molecular Biology. ASM Press pp.1400-1416) fell into both the induced (Table 11) and uninduced classes (Table 12).

[5] = tested on: luxCDABE gene fusions to MMC array genes; assay: Lux-A Collection fusions tested for MMC induction; format: cell-based, E. coli
Protocol: The Lux-A Collection of reporter gene fusions was examined for presence of fusions to the genes in Table 11. […] Each of these was tested for induction by MMC at several doses over a time course of 100 minutes.
As expected, the expression of the known SOS genes was elevated; however the expression of several was elevated less than 2-fold (Table 12) and as such were within a large group of 792 genes the expression of which was elevated by 20% or more. Most of these are likely due to artifacts in the array data rather than to actual biologically relevant responses. To test if strains carrying luxCDABE gene fusions would yield the expected positive result, the three gene fusions that were available in the Lux-A Collection of reporter gene fusions were tested for mitomycin C responses.

[6] = tested on: OxyR regulon ahpC-luxCDABE gene fusions; settings: three ahpC-lux strains; 0.016-0.00025%
Protocol: as §1
To test if these strains would report on activation of the OxyR-controlled oxidative stress response, each was treated with hydrogen peroxide at 0.016, 0.008, 0.004, 0.002, 0.001, 0.0005, 0.00025%.

[7] = tested on: ahpC-luxCDABE gene fusions in pcnB- host; settings: both ahpC-lux fusions in pcnB- host; 0.004-0.00006%, all seven concentrations
Protocol: as §1

[8] = tested on: SoxR/S regulon luxCDABE gene fusions; assay: SoxR/S regulon lux fusions: stress response in liquid LB; format: cell-based, E. coli; settings: each of four strains; 1000-16 μg/ml, all seven concentrations
Protocol: Like the SOS and heat shock regulon fusions, these had basal light production greater than the promoterless parental plasmid indicating the presence of a promoter. Responsiveness of four of these strains to a known inducer of the SoxR/S regulon, methyl viologen, was tested at 1000, 500, 250, 125, 62, 31 and 16 μg/ml. […] Table 8 gives the response ratio for 250 μg/ml at 120 minutes of treatment for the four tested strains. Here again, the biologically appropriate response was observed.

## CCO [Ethanol]
[1]; DPD2249 dinP-lux, 3% ethanol, 40 min
  response ratio: 0.80
[1]; SOS regulon fusions, 5, 4, or 3% (v/v) ethanol
  bioluminescence vs untreated control: little to no increased bioluminescence
[2]
  bioluminescence vs untreated control: increased bioluminescence
[3]; Inverted lux-a.pk043.d3, second isolate
  Light production in LB + 4% ethanol: 29.63 RLU
[3]; inverted lux-a.pk043.d3, first isolate
  Light production in LB + 4% ethanol: 8.17 RLU

## CO[C@@]12[C@H](COC(N)=O)C3=C(C(=O)C(C)=C(N)C3=O)N1C[C@@H]1N[C@@H]12 [MMC, mitomycin C]
yebF-luxCDABE fusion
  induction of bioluminescence: induction by mitomycin C was demonstrated
[4]; b0531
  Fold induction/array expt: 3.3
[4]; b0571 (ylcA)
  Fold induction/array expt: 2.2
[4]; b1228
  Fold induction/array expt: 2.5
[4]; b1847 (yebF)
  Fold induction/array expt: 3.3
[4]; b1848 (yebG)
  Fold induction/array experiment: 5.8
[4]; b2559
  Fold induction/array expt: 2.0
[4]; b2940
  Fold induction/array expt: 2.3
[4]; b3199
  Fold induction/array expt: 2.0
[4]; cspA
  Fold induction/array expt: 2.9
[4]; dinB (dinP)
  Fold induction/array experiment: 2.0
[4]; dinD
  Fold induction/array experiment: 2.2
[4]; dinF
  Fold induction/array experiment: 1.8
[4]; dinG
  Fold induction/array experiment: 1.4
[4]; dinI
  Fold induction/array experiment: 6.7
[4]; dniR
  Fold induction/array expt: 2.1
[4]; exbD
  Fold induction/array expt: 2.2
[4]; himA
  Fold induction/array experiment: 1.3
[4]; hslS
  Fold induction/array expt: 6.7
[4]; hslT
  Fold induction/array expt: 4.0
[4]; infA
  Fold induction/array expt: 2.3
[4]; insA_4
  Fold induction/array expt: 2.1
[4]; insB_1
  Fold induction/array expt: 2.1
[4]; insB_2
  Fold induction/array expt: 2.2
[4]; lexA
  Fold induction/array experiment: 3.6
[4]; mioC
  Fold induction/array expt: 2.1
[4]; polB (dinA)
  Fold induction/array experiment: 1.2
[4]; recA
  Fold induction/array experiment: 3.0
[4]; recN
  Fold induction/array experiment: 8.3
[4]; ruvA
  Fold induction/array experiment: 2.0
[4]; ruvB
  Fold induction/array experiment: 1.5
[4]; secG
  Fold induction/array expt: 2.2
[4]; sulA
  Fold induction/array experiment: 5.8
[4]; trkH
  Fold induction/array expt: 2.1
[4]; umuC
  Fold induction/array experiment: 2.1
[4]; umuD
  Fold induction/array experiment: 1.2
[4]; uvrA
  Fold induction/array experiment: 2.3
[4]; uvrB
  Fold induction/array experiment: 2.1
[4]; uvrD
  Fold induction/array experiment: 1.4
[4]; xseA
  Fold induction/array expt: 2.0
[5]; four fusions to genes not previously known MMC inducible
  gene expression response: no evidence of increased gene expression
[5]; four fusions to known SOS genes of Table 11, several doses, 100 min time course
  induction response: induction of increased bioluminescence
[5]; three fusions to SOS genes of Table 12
  bioluminescence response: induced increased bioluminescence

## OO [H2O2, hydrogen peroxide]
[6]
  bioluminescence induction: minimally induced
[7]
  bioluminescence induction: dramatically induced increased bioluminescence

## C[n+]1ccc(-c2cc[n+](C)cc2)cc1 [Methyl viologen, methyl viologen]
[8]
  bioluminescence vs untreated control: induced increased bioluminescence
